Laboratory results as given in the OPERA property sets (Mansouri et al. 2018).

`CCOC(=O)CCCCn1nnc2ccccc21` gave a logP of 2.2. With `Cc1ccccc1OC1OC(CO)C(O)C(O)C1O` (stereo not drawn) the logP was -0.16. `CCCCCc1ccc(O)cc1` showed a logP of 4.06. In the case of `COC(=O)C(C#N)=NNc1cc(C#N)ccc1C#N`, the logP is reported as 2.81. `OCC1OC(OC2CCCCC2)C(O)C(O)C1O` (stereo not drawn) gave a logP of -0.63. In the case of `COc1ccc(Cc2cnc(N)nc2N)cc1C`, the logP is reported as 1.91. Work on `CSC1=NCCN1c1ncc([N+](=O)[O-])s1` yielded a logP of 1.78. In the case of `O=[N+]([O-])c1cnc(N=C2NCCN2)s1`, the logP is reported as 1.38. For `CCN(CC)c1ccc(CO)cc1`, the logP was 2.29. In the case of `Cn1c(C(O)CO)cnc1[N+](=O)[O-]` (stereo not drawn), the logP is reported as -0.89. Work on `O=C1C=C(Nc2ccccc2)C(=O)c2ccccc21` yielded a logP of 2.84. For `CCC(=O)OCC(=O)[C@@]1(O)[C@@H](C)C[C@H]2[C@@H]3CCC4=CC(=O)C=C[C@]4(C)[C@@]3(F)[C@@H](O)C[C@@]21C`, the logP was 3.06. With `CCCC(C)C1(CC)C(=O)NC(=O)N(C)C1=O` (stereo not drawn) the logP was 2.45. For `COc1cc(Cl)c(NC2=NCCN2)c(Cl)c1`, the logP was 1.6. For `CSC(C)=NOC(=O)N(C)SN(C)C(=O)c1ccc(Cl)cc1`, the logP was 2.6. Work on `O=C(CN1CCCCC1)Nc1ccc(Cl)cc1` yielded a logP of 3.34. With `OC(CN1CCCC1)c1ccccc1` (stereo not drawn) the logP was 1.38. For `Nc1nc(N)nc(-c2cccc(Cl)c2)n1`, the logP was 2.33. `Cc1c[n+]([O-])c2ccccc2c1[N+](=O)[O-]` gave a logP of 1.06. `Cc1cc(-n2[nH]c(C)cc2=O)nc(C)n1` showed a logP of 0.89. `COc1cc(Cc2cnc(N)nc2N)cc(OC)c1O` gave a logP of 0.37. Work on `c1ccc(Sc2nnc[nH]2)cc1` yielded a logP of 1.45. Molecule `CNC(=O)Oc1cccc(C(=O)OC)c1` has a logP of 1.42. For `CSc1ccc2c(c1)C(c1ccccc1)=NCC(=O)N2`, the logP was 2.92. For `CC(=O)C(C#N)=NNc1cc(Cl)cc(Cl)c1`, the logP was 4.68. In the case of `CNC(=O)C(NC(C)=O)C(C)C` (stereo not drawn), the logP is reported as -0.35. Work on `CO[C@@]12[C@@H]3N[C@@H]3CN1C1=C(C(=O)C(Nc3nc(C)c(C)s3)=C(C)C1=O)[C@@H]2COC(N)=O` yielded a logP of 1.29. For `CN(Cc1ccc(C#N)cc1)N=Nc1ccc(C(=O)O)cc1`, the logP was 3.6. Work on `CSc1nc(C)cc(C)n1` yielded a logP of 1.86. For `COCCOc1ccccc1OCCOC`, the logP was 1.12. With `N#Cc1ccc([N+](=O)[O-])n1CCO` the logP was 0.6. `COC(=O)C(C#N)=NNc1ccccc1` gave a logP of 2.59. `CSC(C)=NOC(=O)N(C)SN(C)C(=O)c1ccccc1Cl` gave a logP of 2.5. `O=C(Cn1ccnc1[N+](=O)[O-])NCCO` gave a logP of -1.34. Work on `CC1=CC(=O)N2C=CCCC2(C)N1` (stereo not drawn) yielded a logP of 0.69. Molecule `CN(C)CCc1ccsc1` has a logP of 1.94. For `Nc1nnc(S(N)(=O)=O)s1`, the logP was -0.9. With `COc1cc(Cc2cnc(N)nc2N)ccc1C(C)(C)O` the logP was 1.38. Work on `COC(=O)[C@@H]1[C@@H](C=C(C)C)C1(C)C` yielded a logP of 3.76. `O=S(=O)(Nc1cccc(C(F)(F)F)c1)C(F)(F)F` gave a logP of 4.5. With `CCCCCC(=O)N[C@@H]1C(=O)N2[C@@H]1SC(C)(C)[C@@H]2C(=O)O` the logP was 2.37. `CN(C)Cc1ccco1` gave a logP of 1.19. `COC(=O)C(C#N)=NNc1ccc(C(F)(F)F)cc1[N+](=O)[O-]` showed a logP of 3.44. With `CCC(C)C1=Nc2ccc(Cl)cc2S(=O)(=O)N1` (stereo not drawn) the logP was 2.47. With `CN1CCN(C)C1=Nc1ncc([N+](=O)[O-])s1` the logP was 0.95. In the case of `CCCNc1c([N+](=O)[O-])cc(C(F)(F)F)cc1[N+](=O)[O-]`, the logP is reported as 3.65. Molecule `CC(C)NC(=O)C=Cc1ncc([N+](=O)[O-])s1` has a logP of 1.76. With `S=C1CCCCCCCN1` the logP was 1.44. `CCOC(=O)CCN1C(=O)C=CC1=O` showed a logP of 0.41. With `COc1cc(Cc2cnc(N)nc2N)cc(OC)n1` the logP was 1.64. For `O=C(O)COc1cccc(OC(F)(F)F)c1`, the logP was 2.48. For `CCOC(=O)CN(C(=O)CCl)c1ccccc1CC`, the logP was 2.57. In the case of `CN(C)c1ccc2c(c1)C(c1ccccc1)=NCC(=O)N2C`, the logP is reported as 2.63.
